# Results from paper PMC7892445 (Frontiers in Molecular Neuroscience, 2021).
# Where two headings read alike, the source gives them in different places.
# Experiments:
# Chicken α9α10 nAChR [1] = biological target: T1, Chicken α9α10 nAChR (Gallus gallus, UniProt Q9I8C7+Q9PTS8); assay: Two-electrode voltage clamp, recombinant heteromeric receptor in X. laevis oocytes; assay type: cell-based; details: for Emax: read-out: Efficacy (maximal response as % of that elicited by 1 mM ACh), Chicken α9α10
# T1 construct: expressed in transfected cells; host or cells: Xenopus laevis oocytes (cRNA injection, 1:1 molar ratio)
# Protocol: (§1) For expression studies, rat and chicken α9 and α10 nAChR subunits subcloned into a modified pGEMHE vector were used. Capped cRNAs were in vitro transcribed from linearized plasmid DNA templates using RiboMAX™ Large Scale RNA Production System (Promega, Madison, WI, USA). The maintenance of X. laevis and the preparation and cRNA injection of stage V and VI oocytes have been described in detail elsewhere (Verbitsky et al., [2000]). Typically, oocytes were injected with 50 nl of RNase-free water containing 0.01–1.0 ng of cRNA (at a 1:1 molar ratio for heteromeric receptors) and maintained in Barth’s solution [in mM: NaCl 88, Ca(NO3)2 0.33, CaCl2 0.41, KCl 1, MgSO4 0.82, NaHCO3 2.4, HEPES 10] at 18°C. Electrophysiological recordings were performed 2–6 days after cRNA injection under a two-electrode voltage clamp with an Oocyte Clamp OC-725B or C amplifier (Warner Instruments Corporation, Hamden, CT, USA). Recordings were filtered at a corner frequency of 10 Hz using a 900 BT Tunable Active Filter (Frequency Devices Inc., Ottawa, IL, USA). Data acquisition was performed using a Patch Panel PP-50 LAB/1 interphase (Warner Instruments Corp., Hamden, CT, USA) at a rate of 10 points per second. Both voltage and current electrodes were filled with 3 M KCl and had resistances of ~1 MΩ. Data were analyzed using Clampfit from the pClamp 6.1 software. During electrophysiological recordings, oocytes were continuously superfused (~15 ml/min) with normal frog saline composed of: 115 mM NaCl, 2.5 mM KCl, 1.8 mM CaCl2, and 10 mM HEPES buffer, pH 7.2. Drugs were added to the perfusion solution for the application. The membrane potential was clamped to −70 mV. To minimize activation of the endogenous Ca^2+ sensitive chloride current (Elgoyhen et al., [2001]), all experiments were performed in oocytes incubated with the Ca^2+ chelator 1,2-bis (2-aminophenoxy) ethane-N,N,N’,N’-tetraacetic acid-acetoxymethyl ester (BAPTA-AM, 100 μM) for 3 h before electrophysiological recordings. […] The mean and SEM of peak current responses are presented. Agonist concentration-response curves were iteratively fitted, using Prism 6 software (GraphPad Software Inc., La Jolla, CA, USA), with the equation: I/Imax = A^nh/(A^nH + EC50^nH), where I is the peak inward current evoked by agonist at concentration A; Imax is the current evoked by the concentration of agonist eliciting a maximal response; EC50 is the concentration of agonist inducing half-maximal current response, and nH is the Hill coefficient. An equation of the same form was used to analyze the concentration dependence of antagonist induced blockage.
# [2] = biological target: rat α9–chicken α10 hybrid receptor (Rα9-Cα10) (UniProt P43144+Q9I8C7); assay: Two-electrode voltage clamp, hybrid receptor in X. laevis oocytes; assay type: cell-based; details: mean ± SEM
# Protocol: as §1
# Rat α9 homomeric nAChR = biological target: T2, Rat α9 homomeric nAChR (Rattus norvegicus, UniProt P43144); assay: Two-electrode voltage clamp, recombinant homomeric receptor in X. laevis oocytes; assay type: cell-based
# T2 construct: expressed in transfected cells; host or cells: Xenopus laevis oocytes (cRNA injection)
# Protocol: as §1
# [3] = biological target: Chicken α9 homomeric nAChR (Gallus gallus, UniProt Q9PTS8); assay: as above; assay type: cell-based; details: for EC50: mean ± SEM
# Protocol: as §1
# [4] = biological target: Chicken α10 homomeric nAChR (Gallus gallus, UniProt Q9I8C7); assay: as above; assay type: cell-based; details: for EC50: mean ± SEM
# Protocol: as §1
# Chicken α9α10 nAChR [5] = biological target: T1, Chicken α9α10 nAChR; parameters: method as in Elgoyhen et al., 2001; Lipovsek et al., 2012; details: previous work, ref Elgoyhen et al., 2001, Lipovsek et al., 2012; cited from earlier work
# [6] = biological target: T3, rat α9α10x chimeric receptor (Rattus norvegicus, UniProt P43144+Q9JLB5, A264D/A292P/A308T/A312F/A328P/E329N/F253L/F325Y/H335A/I246L/I275V/I289S/I304M/I310V/I323L/L250F/L309M/M279L/M319L/N295S/R331H/S258A/S293A/V320I/Y260H); assay: Two-electrode voltage clamp, chimeric receptor in X. laevis oocytes; assay type: cell-based
# T3 construct: expressed in transfected cells; host or cells: Xenopus laevis oocytes (cRNA injection)
# Protocol: as §1
# The α10W55T mutant subunit was produced as previously described (Boffi et al., [2017]) using Quick change XL II kit (Stratagene, La Jolla, CA, USA). […]
# Rat α9α10 nAChR = biological target: T4, Rat α9α10 nAChR (Rattus norvegicus, UniProt P43144+Q9JLB5); assay: Two-electrode voltage clamp, recombinant heteromeric receptor in X. laevis oocytes; assay type: cell-based; details: for Efficacy (maximal response as % of that elicited by 1 mM ACh) / EC50: Rat α9α10; for Efficacy (maximal response as % of that elicited by 1 mM ACh) / EC50 / Emax: mean ± SEM; for EC50: −70 mV, BAPTA-AM treated oocytes; for Emax: read-out: Efficacy (maximal response as % of that elicited by 1 mM ACh), Rat α9α10
# T4 construct: expressed in transfected cells; host or cells: Xenopus laevis oocytes (cRNA injection, 1:1 molar ratio)
# Protocol: as §1
# [7] = biological target: rat α9α10W55T receptor (Rα9-Rα10W55T) (Rattus norvegicus, UniProt P43144+Q9JLB5, W81T); assay: Two-electrode voltage clamp, mutant receptor in X. laevis oocytes; assay type: cell-based; details: mean ± SEM
# Protocol: For expression studies, rat and chicken α9 and α10 nAChR subunits subcloned into a modified pGEMHE vector were used. Capped cRNAs were in vitro transcribed from linearized plasmid DNA templates using RiboMAX™ Large Scale RNA Production System (Promega, Madison, WI, USA). The maintenance of X. laevis and the preparation and cRNA injection of stage V and VI oocytes have been described in detail elsewhere (Verbitsky et al., [2000]). Typically, oocytes were injected with 50 nl of RNase-free water containing 0.01–1.0 ng of cRNA (at a 1:1 molar ratio for heteromeric receptors) and maintained in Barth’s solution [in mM: NaCl 88, Ca(NO3)2 0.33, CaCl2 0.41, KCl 1, MgSO4 0.82, NaHCO3 2.4, HEPES 10] at 18°C. Electrophysiological recordings were performed 2–6 days after cRNA injection under a two-electrode voltage clamp with an Oocyte Clamp OC-725B or C amplifier (Warner Instruments Corporation, Hamden, CT, USA). Recordings were filtered at a corner frequency of 10 Hz using a 900 BT Tunable Active Filter (Frequency Devices Inc., Ottawa, IL, USA). Data acquisition was performed using a Patch Panel PP-50 LAB/1 interphase (Warner Instruments Corp., Hamden, CT, USA) at a rate of 10 points per second. Both voltage and current electrodes were filled with 3 M KCl and had resistances of ~1 MΩ. Data were analyzed using Clampfit from the pClamp 6.1 software. […]
# [8] = biological target: chicken α9–rat α10 hybrid receptor (Cα9-Rα10) (UniProt Q9JLB5+Q9PTS8); assay: Two-electrode voltage clamp, hybrid receptor in X. laevis oocytes; assay type: cell-based; details: mean ± SEM
# Protocol: as §1
# mouse outer hair cells = assay: tissue or blood; details: read-out: Efficacy (maximum response normalized to maximal peak response to 3 mM ACh)
# Protocol: (§2) Chicken auditory organ (basilar papilla) was dissected from the temporal bone of embryonic chickens (white Leghorns either sex, 17–20 days in ovo). The tegmentum vasculosum was removed and the tectorial membrane was stripped from the basilar papilla with most of the short hair cells (SHCs) still attached. This “tectorial preparation” was then inverted and secured in the recording chamber by spring clips. SHCs were recorded in a region 25–50% the distance from the apical (lagenar) to the basal tip of the basilar papilla of the chicken. Apical turns of the organ of Corti were excised from BALB/c mice of either sex between postnatal day 11 (P11) and P13 (around the onset of hearing in altricial rodents). At this age, outer hair cells (OHCs) are already innervated by the MOC fibers (Pujol et al., [1998]; Simmons, [2002]). The tectorial membrane was removed and the organ of Corti was positioned under an insect pin affixed to a cover-slip with a drop of Sylgard.
# (§3) Basilar papilla and cochlear preparations were placed into a chamber on the stage of an upright microscope (Olympus BX51WI, Center Valley, PA, USA) at room temperature and used within 2 h. Cells were visualized on a monitor via a water immersion objective (60× magnification), differential interference contrast optics, and a CCD camera (Andor iXon 885, Belfast, UK). […]
# chicken short hair cells = assay: tissue or blood; details: Gallus gallus, read-out: Efficacy (maximum response normalized to maximal peak response to 3 mM ACh)
# Protocol: as §2, §3
# [9] = Chicken α9α10, mean ± SEM, read-out: EC50
# [10] = α9α10x chimeric receptor, mean ± SEM
# T4 sequence (P43144 26-479): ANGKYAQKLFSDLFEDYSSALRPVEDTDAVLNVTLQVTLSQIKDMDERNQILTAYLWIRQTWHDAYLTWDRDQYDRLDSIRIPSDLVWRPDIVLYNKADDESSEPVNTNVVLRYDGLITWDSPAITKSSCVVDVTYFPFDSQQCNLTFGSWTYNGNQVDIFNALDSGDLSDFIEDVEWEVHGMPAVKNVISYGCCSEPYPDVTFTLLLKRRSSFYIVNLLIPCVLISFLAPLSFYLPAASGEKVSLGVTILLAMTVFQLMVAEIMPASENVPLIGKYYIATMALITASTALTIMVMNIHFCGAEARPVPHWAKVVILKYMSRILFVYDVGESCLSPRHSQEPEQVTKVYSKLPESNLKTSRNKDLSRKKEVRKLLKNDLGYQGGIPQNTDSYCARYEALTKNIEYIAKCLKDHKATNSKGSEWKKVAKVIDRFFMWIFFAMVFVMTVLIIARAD
# T4 sequence (Q9JLB5 25-447): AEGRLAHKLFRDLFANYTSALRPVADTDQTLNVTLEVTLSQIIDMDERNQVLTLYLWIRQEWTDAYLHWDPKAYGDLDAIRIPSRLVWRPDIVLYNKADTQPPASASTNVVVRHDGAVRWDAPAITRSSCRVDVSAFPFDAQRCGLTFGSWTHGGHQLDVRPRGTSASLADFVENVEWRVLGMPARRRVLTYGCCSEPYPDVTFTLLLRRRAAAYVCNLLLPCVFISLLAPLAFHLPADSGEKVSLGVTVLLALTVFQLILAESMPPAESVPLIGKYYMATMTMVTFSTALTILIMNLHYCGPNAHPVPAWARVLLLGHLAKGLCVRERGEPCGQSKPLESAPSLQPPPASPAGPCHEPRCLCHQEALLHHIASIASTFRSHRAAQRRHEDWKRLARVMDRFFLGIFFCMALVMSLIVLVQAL
# T2 sequence (P43144 26-479): as the sequence (P43144 26-479) above
# Chain of rat α9–chicken α10 hybrid receptor (Rα9-Cα10) (P43144 26-479): as above
# Chain of rat α9–chicken α10 hybrid receptor (Rα9-Cα10) (Q9I8C7 27-452): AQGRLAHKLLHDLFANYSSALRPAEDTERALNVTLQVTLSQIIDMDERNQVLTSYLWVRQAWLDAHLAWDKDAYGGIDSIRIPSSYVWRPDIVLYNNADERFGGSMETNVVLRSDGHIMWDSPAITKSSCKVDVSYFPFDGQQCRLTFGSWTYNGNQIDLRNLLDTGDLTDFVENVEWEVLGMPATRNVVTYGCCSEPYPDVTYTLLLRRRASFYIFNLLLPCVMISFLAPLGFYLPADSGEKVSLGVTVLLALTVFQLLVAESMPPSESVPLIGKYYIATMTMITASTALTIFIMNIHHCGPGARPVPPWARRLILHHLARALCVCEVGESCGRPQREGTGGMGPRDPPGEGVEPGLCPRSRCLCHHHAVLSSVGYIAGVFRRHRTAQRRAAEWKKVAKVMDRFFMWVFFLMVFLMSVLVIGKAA
# T3 sequence (P43144 26-479, stated change not applied): as the sequence (P43144 26-479) above
# T3 sequence (P43144+Q9JLB5 fused with the stated changes): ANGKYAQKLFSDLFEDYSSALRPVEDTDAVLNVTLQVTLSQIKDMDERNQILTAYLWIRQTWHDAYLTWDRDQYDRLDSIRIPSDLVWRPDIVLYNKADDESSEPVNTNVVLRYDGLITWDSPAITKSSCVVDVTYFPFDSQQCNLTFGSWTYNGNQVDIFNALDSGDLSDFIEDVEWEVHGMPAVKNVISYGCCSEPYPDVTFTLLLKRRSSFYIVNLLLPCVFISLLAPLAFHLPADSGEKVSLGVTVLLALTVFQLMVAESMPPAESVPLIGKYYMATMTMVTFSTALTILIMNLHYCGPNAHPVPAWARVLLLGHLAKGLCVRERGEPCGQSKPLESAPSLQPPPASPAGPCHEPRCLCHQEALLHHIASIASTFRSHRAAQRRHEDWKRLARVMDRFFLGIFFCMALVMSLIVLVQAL
# Chain of Chicken α10 homomeric nAChR (Q9I8C7 27-452): as the sequence (Q9I8C7 27-452) above
# Chain of Chicken α9 homomeric nAChR (Q9PTS8 28-484): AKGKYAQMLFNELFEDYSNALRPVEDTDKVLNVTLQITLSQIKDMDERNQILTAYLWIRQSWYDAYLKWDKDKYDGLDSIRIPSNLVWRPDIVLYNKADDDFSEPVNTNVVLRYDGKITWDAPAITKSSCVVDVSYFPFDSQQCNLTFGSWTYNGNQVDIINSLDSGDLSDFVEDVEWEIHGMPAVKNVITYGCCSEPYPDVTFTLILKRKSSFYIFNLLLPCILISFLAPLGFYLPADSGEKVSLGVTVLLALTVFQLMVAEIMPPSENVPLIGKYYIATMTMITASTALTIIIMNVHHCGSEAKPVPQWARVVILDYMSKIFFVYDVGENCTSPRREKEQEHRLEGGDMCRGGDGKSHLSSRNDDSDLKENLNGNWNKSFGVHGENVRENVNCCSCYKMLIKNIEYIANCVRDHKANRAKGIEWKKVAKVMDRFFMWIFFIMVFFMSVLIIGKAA
# Chain of chicken α9–rat α10 hybrid receptor (Cα9-Rα10) (Q9PTS8 28-484): as above
# Chain of chicken α9–rat α10 hybrid receptor (Cα9-Rα10) (Q9JLB5 25-447): as the sequence (Q9JLB5 25-447) above
# T1 sequence (Q9PTS8 28-484): as the sequence (Q9PTS8 28-484) above
# T1 sequence (Q9I8C7 27-452): as the sequence (Q9I8C7 27-452) above
# Chain of rat α9α10W55T receptor (Rα9-Rα10W55T) (P43144 26-479): as the sequence (P43144 26-479) above
# Chain of rat α9α10W55T receptor (Rα9-Rα10W55T) (Q9JLB5 25-447 W81T): as the sequence (Q9JLB5 25-447) above, with W57T counted along it
smiles,measurement,setting,value
"CC(=O)OCC[N+](C)(C)C [ACh, acetylcholine]",EC50,Chicken α9α10 nAChR [1],13.1 ± 2.6 µM
same,EC50,[2]; Rα9-Cα10 hybrid,11.6 ± 2.9 µM
same,Imax (maximal ACh response),Rat α9 homomeric nAChR; homomeric rat α9,14 ± 2 nA
same,EC50,[3],12.9 ± 1.4 µM
same,EC50,[4],2.2 ± 0.7 µM
same,EC50,Chicken α9α10 nAChR [5],~10 µM
same,Imax (maximal ACh response),[6]; rat α9 co-expressed with α10x,269 ± 103 nA
"C[N+](C)(C)CCOC(N)=O [Carbachol, carbachol]",Efficacy (maximal response as % of that elicited by 1 mM ACh),Rat α9α10 nAChR,75.5 ± 5.2 (5) %
same,EC50,Rat α9α10 nAChR,159 ± 31.5 µM
same,Potency relative to ACh (times lower),"Rat α9α10 nAChR; rat α9α10, carbachol EC50 vs ACh",~12 times
same,Emax,Rat α9α10 nAChR,75 ± 5%
same,Efficacy (maximal response as % of that elicited by 1 mM ACh),"Chicken α9α10 nAChR [1]; Chicken α9α10, mean ± SEM",89.8 ± 7.0 (6) %
same,EC50,Chicken α9α10 nAChR [1]; [9],150 ± 15 µM
same,Potency relative to ACh (times lower),"Chicken α9α10 nAChR [1]; chicken α9α10, carbachol EC50 vs ACh",~12 times
same,Emax,Chicken α9α10 nAChR [1]; mean ± SEM,89 ± 7%
"C[N+](C)(C)CCO [Choline, choline]",Efficacy (responses to 10 mM choline as % of those elicited by 1 mM ACh),[7],7.4 ± 1.9 (5) %
same,Efficacy (responses to 10 mM choline as % of those elicited by 1 mM ACh),[7]; listed as choline,7 ± 2%
same,Efficacy (maximal response as % of that elicited by 1 mM ACh),Rat α9α10 nAChR,37.5 ± 2.5 (9) %
same,Efficacy (maximal response as % of that elicited by 1 mM ACh),Rat α9α10 nAChR; listed as choline,38 ± 3%
same,EC50,Rat α9α10 nAChR,541 ± 62 µM
same,Emax,Rat α9α10 nAChR,37 ± 3%
same,EC50,Chicken α9α10 nAChR [1]; [9],200 ± 16 µM
same,Emax,Chicken α9α10 nAChR [1]; mean ± SEM,88 ± 6.7%
same,EC50,[2]; Rα9-Cα10 hybrid,148 ± 12.1 µM
same,Efficacy (maximal response as % of responses to 1 mM ACh),[2]; Rα9-Cα10 hybrid,86.4 ± 2.1 (6) %
same,Emax,"[2]; read-out: Efficacy (maximal response as % of responses to 1 mM ACh), Rα9-Cα10 hybrid",86 ± 2%
same,EC50,[8]; Cα9-Rα10 hybrid,333 ± 66.2 µM
same,Efficacy (maximal response as % of maximal ACh response),[8]; Cα9-Rα10 hybrid,51.2 ± 6 (5) %
same,Emax,"[8]; read-out: Efficacy (maximal response as % of maximal ACh response), Cα9-Rα10 hybrid",51 ± 6%
same,Emax,mouse outer hair cells,50 ± 9%
same,Emax,chicken short hair cells,90 ± 6%
same,Efficacy (maximal response as % of that elicited by 1 mM ACh),"Rat α9 homomeric nAChR; Rat α9, mean ± SEM",87.3 ± 6.0 (4) %
same,EC50,"Rat α9 homomeric nAChR; Rat α9, −70 mV, BAPTA-AM treated oocytes, mean ± SEM",188 ± 40 µM
same,Emax,"Rat α9 homomeric nAChR; read-out: Efficacy (maximal response as % of that elicited by 1 mM ACh), Rat α9, mean ± SEM",87 ± 6%
same,EC50,[3],280 ± 20 µM
same,Emax,"[3]; read-out: Efficacy (maximal response as % of that elicited by 1 mM ACh), mean ± SEM",73.7 ± 5.9%
same,EC50,[4],23.2 ± 8.3 µM
same,Emax,"[4]; read-out: Efficacy (maximal response as % of maximal ACh response), mean ± SEM",99.4 ± 9.5%
same,Emax,"[6]; read-out: Efficacy (maximal response as % of maximal ACh response), α9α10x chimeric receptor, mean ± SEM",74 ± 1%
same,EC50,[6]; [10],160 ± 7.6 µM
same,Efficacy (maximal response as % of maximal ACh response),[6]; [10],74.3 ± 1.0 (5) %
C[N+]1(C)CCN(c2ccccc2)CC1 [DMPP],Efficacy (maximal response as % of that elicited by 1 mM ACh),Rat α9α10 nAChR,0.6 ± 0.3 (6) %
same,EC50,Rat α9α10 nAChR,21.5 ± 4 µM
same,Efficacy (maximal response as % of that elicited by 1 mM ACh),"Chicken α9α10 nAChR [1]; Chicken α9α10, mean ± SEM",32.6 ± 2.9 (5) %
same,EC50,Chicken α9α10 nAChR [1]; [9],9.8 ± 0.5 µM
"CN1CCC[C@H]1c1cccnc1 [Nicotine, nicotine]",Agonist activity (currents elicited),Rat α9α10 nAChR; oocytes expressing rat α9α10,did not elicit currents
same,IC50,Chicken α9α10 nAChR [1],39.4 ± 3.4 µM
same,Agonist activity (currents elicited),Chicken α9α10 nAChR [1]; oocytes expressing chicken α9α10,did not elicit currents
